# Measured values published in patent US11179452B2, “Antigen specific multi epitope vaccines” (priority 2006, dated 2021).
# No end group written: not given here.
# Experiments:
# Type in all cases: cell-based, human
# [1] = system: ImMucin specific enriched T-cell clone; assay: ELISA of cytokine secretion during development of the ImMucin-specific T cell subpopulation by repeated stimulation (FIG. 1)
# From the text: (§1) Thawed PBLs underwent 1st stimulation with ImMucin pulsed Autologues DC at a ratio of 20:1 and cultured for 7 days in dedicated T cell Medium. T cell medium contained RPMI medium supplemented with 10% FCS, L-Glutamine, Sodium Pyruvate, MEM-EAGLE non-essential amino-acids, HEPES and Gentamycin Sulphate (Bet-Haemek Industries, IL) as well as with 50 IU/ml of recombinant IL-7 (Cytolab IL). For the second stimulation, PBL were transferred to adherent autologues ImMucin-pulsed PBMC and cultured for additional 5 days in T cell Medium. At the end of the 5 days, medium was partial replaced with fresh medium containing 1 ug/ml of ImMucin and 50 IU/ml IL-2 for a third stimulation of 48 h at 37° C. Following the last stimulation ImMucin T cell line was checked for immune activation properties.
# Cytokine release was studied during the culture of stimulated T-cells. The evaluated samples were collected from the T cell culture medium on day 2, 3, and 5 and stored until use at −20° C.
# […] of the selected capture antibody (e.g. anti-Hu IFN-Gamma, or anti-Hu TNF-alfa or anti IL-2) were added to each well at the final concentration of 5 μg/ml in PBS. Plates were incubated for 2 h at R.T. or over night at 4° C. Next, […] of blocking solution were added for an incubation of 2 h at R.T. […] of evaluated samples were added in duplicate into 2 wells for 2 hours at RT. After 2 h of incubation at R.T plates were washed λ4 times in washing solution. In the next step, a Biotin-conjugated detection antibody (relevant to coated antibody) was added at a final concentration of 10 μg/ml in total volume of 100 μl for 1 h at R.T. Finally, 100 μl/well working dilution (1:10000 in Blocker solution) of Streptavidin-HRP were added to each well and incubated for 1 h at R.T.
# Plates were washed λ6 times with PBS-Tween (0.4%) and 100 μl/well of TMB/E Solution (CHEMICON, Catalog #ES001) was added. The plates were then exposed until blue color appeared in the wells of the positive control and no color was detected in the blank wells. To stop the color reaction, 50 μl/well of 10% of Sulfuric acid was added. The plates were counted in ELISA-Reader using a 450 nm filter.
# (§2) For producing the specific T cell subpopulation PBL were stimulated three times for 7, 5 and 2 days with ImMucin presented via DC and PBMC. Following the 3rd stimulation the cells were evaluated against the different VXL epitopes.
# [2] = system: ImMucin specific T-cell subpopulation; assay: Proliferation of the ImMucin-specific T-cell subpopulation after three stimulations; settings: one out of two experiments, four donors
# From the text: as §1
# (§3) Proliferation analysis was conducted in three different methods. In all three methods, plates were cultured for 3-5 days under visual control and then 0.5 […]Cu/well of 3[H] (Amersham) was added for additional culture of to 18 h at 37° C. In the last step, plates were harvested and the radioactive counts were measured in a □ counter. • 1. DC indirect presentation: In the first method, 100 µl of 2×10^6 thawed PBL were placed in U-shape Bottom 96 well plate (Nunc) with RPMI medium supplemented with 5% H AB serum, L-Glutamine, Sodium Pyruvate, MEM-EAGLE non-essential amino-acids, HEPES and Gentamycin. At the next stage 100 µl of 25×10^4 peptide-pulsed DC were added to each three wells of PBL and underwent proliferation analysis as described above. • 2. PBL direct presentation: In the 2nd method, 100 µl of 2×10^6 PBL were placed in Flat Bottom 96 well plates (Corning) and stimulated with different concentrations (0.05 ug/ml-2 ug/ml) of peptides. In the next step the cells underwent proliferation analysis as described above. • 3. PBMC direct presentation: In third method PNMC were used under similar conditions as described for the second method.
# For that purpose, an enriched ImMucin-specific T cell subpopulation was produced via repeated stimulation with ImMucin. The specificity of the subpopulation for ImMucin, as well as to the other VXL epitopes, was examined using proliferation assays, cytokine release assays, FACS analysis in which the percentage and type of cells enriched during the enrichment process was analyzed, and using a CTL assay against selected target cells.
# as §2
# PBL [3] = assay: Proliferation of PBL, direct presentation of peptide without APC
# Description: In all three methods, plates were cultured for 3-5 days under visual control and then 0.5 □Cu/well of 3[H] (Amersham) was added for additional culture of to 18 h at 37° C. […] DC indirect presentation: In the first method, 100 µl of 2×10^6 thawed PBL were placed in U-shape Bottom 96 well plate (Nunc) with RPMI medium supplemented with 5% H AB serum, L-Glutamine, Sodium Pyruvate, MEM-EAGLE non-essential amino-acids, HEPES and Gentamycin. At the next stage 100 µl of 25×10^4 peptide-pulsed DC were added to each three wells of PBL and underwent proliferation analysis as described above. • 2. PBL direct presentation: In the 2nd method, 100 µl of 2×10^6 PBL were placed in Flat Bottom 96 well plates (Corning) and stimulated with different concentrations (0.05 ug/ml-2 ug/ml) of peptides. In the next step the cells underwent proliferation analysis as described above. • 3. PBMC direct presentation: In third method PNMC were used under similar conditions as described for the second method.
# Direct presentation of peptides to PBL without any APC
# PBL [4] = assay: Proliferation of PBL, DC indirect presentation (peptide-pulsed autologous DC)
# Description: Human PBMC were separated from buffy coat samples of naive donors using Ficoll UNI-SEPmaxi tube. Separated cells were suspended in RPMI medium supplemented with 10% FCS, L-Glutamine, Sodium Pyruvate, MEM-EAGLE non-essential amino-acids, HEPES and Gentamycin Sulphate (Bet-Haemek Industries, IL) and cultivated for 4 h at 37° C. in a culture dish (Corning 150 mm×25 mm). Adherent cells were collected and cultured for 7 days in serum free DCCM-1 medium supplemented with L-Glutamine, huIL-4 (1000 IU/ml) (Cytolab IL) and GM-CSF-80 ug/ml (Cytolab IL). On day seven floating cells were collected and loaded with 50 ug/ml of examined peptide for 18 h at 37° C.
# as §3
# In the first set of experiments, the 21mer ImMucin, its different 9mer epitopes and other control epitopes (Table 3) were evaluated in proliferation assays with the aim of finding their optimal mode of presentation, stimulated dose as well as their peak of activity (time wise).
# To evaluate the most efficient method for priming of PBLs with the different peptides, the following methods were compared:
# a. In-direct presentation of the peptide via Autologues-pulsed DC
# Five experiments were performed according to the protocol described in material and methods with buffy-coat enriched PBLs obtained from six different naive donors (obtained from the Israeli blood bank).
# [5] = after the second and third stimulations with ImMucin
# [6] = optimal dose required for PBL activation, average of 5 experiments, six donors
sequence,measurement,setting,value
MTPGTQSPFFLLLLLTVLTVV [ImMucin],TNF-Alfa secretion,[1]; after the 3rd stimulation on day 14,completely disappeared
same,IL-2 secretion from CD4+ T cells,[1]; [5],increased dramatically
same,INF-gamma secretion mainly from CD8+ T cells,[1]; [5],increased dramatically
same,"TNF-Alfa secretion, peak",[1]; during the first stimulation with ImMucin (FIG. 1),5 ng/mL
same,TNF-Alfa secretion,[1]; following a second stimulation with ImMucin,decreased
same,IS (Average),[2],3.2
same,IS (Range),[2],2.2-4.2
same,PBL Index of stimulation (SI) Direct no APC,PBL [3]; average of two healthy donors (Table 11),0
same,Optimal dose Direct no APC,PBL [3]; [6],No Influence
same,Peak of Proliferation (Hours) Direct no APC,"PBL [3]; visual inspection daily during 5 days, average of 5 experiments",No proliferation
same,PBL Index of stimulation (SI) via DC,"PBL [4]; naive donors, CPM sample / CPM control, representative of 5 experiments",4
same,IS (SI of the peptides as indicated in Table 7),"PBL [4]; one out of five experiments, six donors",4
same,Optimal dose via DC,PBL [4]; [6],12.5-25 × × 10e6/well
same,IS (as indicated in Table 12),PBL [4]; two donors,2.8
same,Peak of Proliferation (Hours) via DC,"PBL [4]; visual inspection by light microscopy daily during 5 days, average of 5 experiments",96 h
